# Experimental data published in patent publication US20140045724A1, “FORMULATION SCREENING METHODS, APPARATUSES FOR PERFORMING SUCH METHODS AND FORMULATIONS FORMED BY SUCH METHODS” (priority 2012, published 2014).
# Experiment: Kinetic gradient concentration study in water
# Format: physicochemical
# Settings: CBZ gradient 0.01-0.64 w/v %
# Procedure: CBZ-Ethanol solution was dispensed into 10 columns of wells in a 96-well microplate as follows: row A (80 μL @ 1 mg/mL; 80 μg API); row B (100 μL @ 2 mg/mL; 200 μg); row C (100 μL @ 4 mg/mL; 400 μg); row D (100 μL @ 6 mg/mL; 600 μg); row E (100 μL @ 8 mg/mL; 800 μg); row F (100 μL @ 20 mg/mL; 2 mg); row G (2×100 μL @ 20 mg/mL; 4 mg); row H (4×100 μL @ 20 mg/mL; 8 mg). Thus, a first-pass filling of the wellplate was conducted. The wellplate was placed on a centrivap and the solvent stripped at ambient temperature for ˜4 hours. The wells in rows G and H were refilled with CBZ solution, and the solvent stripped at ambient temperature for ˜1 hour, resulting in a net CBZ charge to rows G and H of 4 mg per well. This procedure was repeated twice for row H, resulting in a net CBZ charge of 8 mg per well. […] To the wells in columns 1 through 10 were charged the appropriate excipient, surfactant, and HPBCD solutions (4 mg/mL; 25 or 80 μL 5% Ethanol solution) that were previously determined in Example 1. Additional 5% Ethanol solvent was added to the wells to give 200 μL total liquid. The solvent (200 μL) was also charged to wells in column 11 (API control) and 12 (solvent only). […]
# The microplate was inverted before scanning through the film on a UV-VIS microplate reader (600-900 nm, 2-nm step size; transmittance). […]
compound,measurement,setting,value
"NC(=O)N1c2ccccc2C=Cc2ccccc21 [control, carbamazepine]","kinetically stable API concentration, sonicated microplate",sonicated wellplate,0.02 w/v %
same,"kinetically stable API concentration, unsonicated microplate",unsonicated wellplate,0.02 w/v %
